From PubChem BioAssay (NCI)
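A five-concentration, 48-hour dose response in 96-well plates underlies each endpoint, interpolated linearly between surrounding concentrations. The concentration for 50% growth inhibition is given as GI50. Definition used: TGI = concentration required for complete inhibition of growth.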

What was measured:
Assay in all cases: NCI tumour cell line growth inhibition, 48 h
OVCAR-4 ovarian = system: OVCAR-4 ovarian
HT29 colon = system: HT29 colon
ACHN renal = system: ACHN renal
A498 renal = system: A498 renal
NCI-H23 lung = system: NCI-H23 lung
HOP-92 NSCLC = system: HOP-92 NSCLC
T-47D breast = system: T-47D breast
CAKI-1 renal = system: CAKI-1 renal
RXF 393 renal = system: RXF 393 renal
SK-MEL-28 melanoma = system: SK-MEL-28 melanoma

Row | SMILES | TGI (OVCAR-4 ovarian) [µM] | TGI (HT29 colon) [µM] | TGI (ACHN renal) [µM] | TGI (A498 renal) [µM] | TGI (NCI-H23 lung) [µM] | TGI (HOP-92 NSCLC) [µM] | TGI (T-47D breast) [µM] | TGI (CAKI-1 renal) [µM] | TGI (RXF 393 renal) [µM] | TGI (SK-MEL-28 melanoma) [µM] | GI50 (T-47D breast) [µM] | GI50 (OVCAR-4 ovarian) [µM] | GI50 (HT29 colon) [µM] | GI50 (ACHN renal) [µM] | GI50 (A498 renal) [µM] | GI50 (NCI-H23 lung) [µM] | GI50 (HOP-92 NSCLC) [µM] | GI50 (CAKI-1 renal) [µM] | GI50 (RXF 393 renal) [µM] | GI50 (SK-MEL-28 melanoma) [µM]
1 | COc1ccc(C(=O)NC2=C(Cl)C(=O)c3ccccc3C2=O)cc1 | 7.72 | 19.4 | 1.73 | 27.7 | 6.05 | 2.73 | 3.83 | 6.94 | 8.25 | 17.9 | – | – | – | – | – | – | – | – | – | –
2 | O=NN1C(c2ccccc2)C2CCCC(C2=O)C1c1ccccc1 (stereo not given) | 66.3 | 40.1 | – | > 94.1 | 48.3 | 55.6 | – | 94.1 | 41.8 | 44.3 | – | – | – | – | – | – | – | – | – | –
3 | C[C@]12Cc3cnc(-c4ccccc4)nc3C[C@@H]1CC[C@@H]1[C@@H]2CC[C@@]2(C)[C@H]1CC[C@]2(C)O | 66.7 | 23.7 | > 64.9 | 43.2 | 47.3 | 54.4 | 39.7 | 16.6 | 12.3 | 56.9 | – | – | – | – | – | – | – | – | – | –
4 | COC(=O)c1c(C)[nH]c2c1C(=O)C(=O)c1nc(C)c(C)nc1-2 | 28.7 | 59.6 | 47.3 | 40 | 36.9 | 24.8 | 9.55 | > 100 | 13.4 | 25.2 | – | – | – | – | – | – | – | – | – | –
5 | O=S(=O)(O)c1cc(S(=O)(=O)O)c2cc(N=Nc3c(O)ccc4ccccc34)ccc2c1 | > 100 | > 100 | > 100 | – | > 100 | > 100 | > 100 | > 100 | > 100 | > 100 | – | – | – | – | – | – | – | – | – | –
6 | COc1ccc(NC(=S)NNC(=O)c2nsc3ccccc23)cc1 | > 100 | > 100 | > 100 | – | > 100 | 83.5 | – | – | 72.9 | > 100 | – | – | – | – | – | – | – | – | – | –
7 | Nc1c(OCC(=O)O)ccc2cc(S(=O)(=O)O)ccc12 | > 100 | – | > 100 | > 100 | > 100 | – | > 100 | > 100 | > 100 | > 100 | – | – | – | – | – | – | – | – | – | –
8 | O=C(Nn1c(-c2cccs2)nc2ccc(I)cc2c1=O)c1ccccc1 | 80.6 | 90.6 | > 100 | – | 67.4 | 51.7 | 37.6 | 51 | > 100 | 53 | 11.1 | – | – | – | – | – | – | – | – | –
9 | CN1CC(c2ccccc2)C(O)(C2(c3ccccc3)CN(C)CC(c3ccccc3)C2=O)C(c2ccccc2)C1 (stereo not given) | > 100 | > 100 | > 100 | > 100 | > 100 | > 100 | > 100 | > 100 | – | > 100 | – | – | – | – | – | – | – | – | – | –
10 | Cc1cn(C2C=CC(COP(=O)(OCc3ccc([N+](=O)[O-])o3)N(C)CCCCCl)O2)c(=O)[nH]c1=O (stereo not given) | 17.2 | 27 | 28.6 | – | 10.7 | 10.9 | 7.05 | 37 | 11.3 | 22.4 | – | – | – | – | – | – | – | – | – | –
11 | CC[C@H](C)C1=C(OC(C)=O)[N@+]2([O-])Oc3ccc(-c4c(O)c(O)c(-c5ccc(OC(C)=O)cc5)c(OC(C)=O)c4OC(C)=O)cc3O[C@]2([C@@H](C)CC)C(=O)N1O | 26.9 | > 50 | > 50 | > 50 | > 50 | 23 | 37.7 | > 50 | > 50 | > 50 | – | – | – | – | – | – | – | – | – | –
12 | O=C(O)CCO/N=C1/C(c2c(O)[nH]c3ccccc23)=Nc2ccccc21 | > 100 | 79.4 | > 100 | 74.2 | 66.5 | 96.9 | 72.6 | 63.8 | 17.5 | > 100 | – | – | – | – | – | – | – | – | – | –
13 | CC[C@@]1(OC(=O)CN(C)C)C(=O)OCc2c1cc1n(c2=O)Cc2cc3c(N)cccc3nc2-1 | 14.6 | > 100 | 0.287 | 0.0987 | 0.684 | 0.785 | 0.868 | 0.0537 | 0.576 | 4.28 | 0.0253 | 0.625 | 0.118 | 0.0286 | 0.0208 | 0.0277 | 0.0239 | < 0.01 | 0.144 | 0.297
14 | OC(c1ccc(Cl)cc1)(c1ccc(Cl)cc1)c1cncnc1 | 41.5 | 32.1 | – | 47.6 | 61.6 | 31.2 | > 100 | 36.2 | 28.4 | 38 | – | – | – | – | – | – | – | – | – | –
15 | Clc1cc2ccccc2c2ccccc12 | > 100 | > 100 | > 100 | > 100 | > 100 | 87.3 | > 100 | > 100 | > 100 | > 100 | – | – | – | – | – | – | – | – | – | –
16 | O=C(O)C1OC1C(=O)O (stereo not given) | > 100 | > 100 | > 100 | > 100 | > 100 | > 100 | > 100 | > 100 | > 100 | > 100 | – | – | – | – | – | – | – | – | – | –
17 | CCc1c2cc(OC)c(OC)cc2cc2c3cc(OC)c(OC)cc3cc[n+]12 (tested in a mixture with another compound) | > 85.6 | > 66.4 | > 71.2 | > 71.8 | 60.5 | > 80 | > 67 | > 73.4 | > 100 | > 79.4 | – | – | – | – | – | – | – | – | – | –
18 | CO/N=C(/C)c1cccc(Nc2nc3ccc(Cl)cc3c3[nH]c4ccccc4c23)c1 | – | – | 13.5 | 14.2 | 28.5 | 21 | 7.28 | 24.3 | 6.92 | – | – | – | – | – | – | – | – | – | – | –
19 | COc1cc2c(cc1OC)C1c3ccccc3CCN1CCC2 (stereo not given) | – | > 100 | > 100 | – | – | – | > 100 | > 100 | – | > 100 | – | – | – | – | – | – | – | – | – | –
20 | CC(C)=Cc1cc(C)c2c3c(c(O)c(O)c(C)c13)C(C)=CC2=O | – | 32.1 | 56.2 | 47.5 | 64.5 | 38.6 | 49.3 | 58.5 | – | – | – | – | – | – | – | – | – | – | – | –
21 | CN(C)CCCNc1ccc2nnn3c4ccc(OC(=O)c5ccccc5)cc4c(=O)c1c23 | 11.7 | 22.2 | 16.5 | 25.4 | 32.2 | 39.2 | 37.5 | 10.7 | 12.8 | 30.2 | – | – | – | – | – | – | – | – | – | –
22 | Clc1ccc(C2CC(c3cccc(Nc4ccncc4)c3)=NN2c2ccc(Cl)cc2)cc1 (stereo not given) | 3.08 | – | 3 | 2.94 | 3.49 | 2.79 | – | 2.79 | 2.94 | 3.09 | – | 1.66 | – | 1.64 | 1.56 | 1.83 | 1.38 | 1.46 | 1.54 | 1.67
23 | c1ccc2c(c1)OCCc1cn[nH]c1-2 | > 100 | > 100 | – | > 100 | > 100 | > 100 | – | 87.9 | > 100 | > 100 | – | – | – | – | – | – | – | – | – | –
24 | O=C1C[C@H](COCc2ccccc2)NC(=O)C[C@H](COCc2ccccc2)NC(=O)C[C@H](COCc2ccccc2)N1 | > 100 | > 100 | > 100 | 42 | > 100 | 35.4 | > 100 | > 100 | 27.1 | > 100 | – | – | – | – | – | – | – | – | – | –
25 | COc1ccc(C(=O)O[C@H]2CC[C@@]3(C)[C@@H]4CC[C@H]5[C@]6(O)C[C@H](O)[C@@]7(O)[C@@H](CN8C[C@@H](C)CC[C@H]8[C@@]7(C)O)[C@]6(O)C[C@@]53OC24O)cc1OC | > 100 | > 100 | > 100 | > 100 | > 100 | > 100 | > 100 | > 100 | > 100 | > 100 | – | – | – | – | – | – | – | – | – | –
26 | COc1ccc(/C=C2\C[C@H]3[C@@H]4CC=C5C[C@@H](OC(C)=O)CC[C@]5(C)[C@H]4CC[C@]3(C)\C2=N\O)cc1OC | > 100 | > 100 | > 100 | > 100 | > 100 | > 100 | > 100 | > 100 | > 100 | > 100 | – | – | – | – | – | – | – | – | – | –
27 | O=C1CCCC/C1=C1/SC(=Nc2ccccc2)C(=Nc2ccccc2)N1c1ccccc1 | – | > 100 | – | > 100 | > 100 | > 100 | > 100 | > 100 | 40 | > 100 | – | – | – | – | – | – | – | – | – | –
28 | O=C(O)C(O)(c1ccc(-c2ccccc2)cc1)c1ccc(-c2ccccc2)cc1 | > 100 | > 100 | 94.7 | 43.5 | 36.2 | 41.4 | > 100 | > 100 | 51.6 | > 100 | – | – | – | – | – | – | – | – | – | –
